From patent US12227520B2 (priority 2019, dated 2025) come the findings set out here.

The term CC50 denotes the concentration that lowers cell viability or growth by half. Usually EC50 stands for the concentration needed to bring the measured effect to its halfway point.

Data set [1] in a line: Cytotoxicity assay in MT-4 cells. It counts as cell-based, human. As to conditions: human, uninfected MT-4 cells, 5 days incubation; read-out: CC50. The procedure:
Each plate contained up to 8 test compounds, with negative (No Drug Control) and 5 μM AZT positive controls. MT-4 cells were pre-infected with 10 μL of either RPMI (mock-infected) or a fresh 1:250 dilution of HIV-1 IIIB concentrated virus stock. Infected and uninfected MT-4 cells were further diluted in complete RPMI media and added to each plate using a Micro Flow dispenser. After 5 days incubation in a humidified and temperature controlled incubator (37° C.), Cell Titer Glo (Promega) was added to the assay plates and chemiluminescence read using an Envision plate-reader. […] Assays were performed as above except uninfected MT-4 cells were added to each well containing test compound. In addition, 10 μM puromycin was added to the last column of each assay plate to assess a base level of cytotoxicity.

For another data set, the system named is HIV-1 (IIIB). In words: Antiviral assay in MT-4 cells (HIV MT-4 antiviral assay). Type of data set: cell-based. Particulars: Human immunodeficiency virus 1, IIIB, MT4, 120 h, HIV-1 (IIIB) in MT-4 cells, 5 days incubation. On the procedure: Compounds were tested in a high-throughput 384-well assay format for their ability to inhibit the replication of HIV-1 (IIIB) in MT-4 cells. Compounds were serially diluted (1:3) in DMSO on 384-well polypropylene plates and further diluted 200-fold into complete RPMI media (10% FBS, 1% P/S) using the Biotek Micro Flow and Labcyte ECHO acoustic dispenser. Each plate contained up to 8 test compounds, with negative (No Drug Control) and 5 μM AZT positive controls. MT-4 cells were pre-infected with 10 μL of either RPMI (mock-infected) or a fresh 1:250 dilution of HIV-1 IIIB concentrated virus stock. Infected and uninfected MT-4 cells were further diluted in complete RPMI media and added to each plate using a Micro Flow dispenser. After 5 days incubation in a humidified and temperature controlled incubator (37° C.), Cell Titer Glo (Promega) was added to the assay plates and chemiluminescence read using an Envision plate-reader.

Like-named read-outs stand apart in the source and are kept apart here.

With `CO[C@@H]1CCN2C[C@H](C1)n1cc(C(=O)NCc3c(F)cc(F)cc3F)c(=O)c(O)c1C2=O` [Example 103-1, (5R,7S)-12-hydroxy-5-methoxy-1,11-dioxo-N-(2,4,6-trifluorobenzyl)-1,4,5,6,7,11-hexahydro-3H-2,7-methanopyrido[1,2-a][1,4]diazonine-10-carboxamide], the CC50 at 5 days in data set [1] is > 50000 nM. Further, the EC50 with HIV-1 (IIIB) (read-out: EC50) amounted to 8.97 nM.
`CO[C@H]1CCN2C[C@H](C1)n1cc(C(=O)NCc3c(F)cc(F)cc3F)c(=O)c(O)c1C2=O` [Example 103-2, (5S,7S)-12-hydroxy-5-methoxy-1,11-dioxo-N-(2,4,6-trifluorobenzyl)-1,4,5,6,7,11-hexahydro-3H-2,7-methanopyrido[1,2-a][1,4]diazonine-10-carboxamide]: in data set [1], the CC50 at 5 days was > 50000 nM. In addition, in the data set on HIV-1 (IIIB) (read-out: EC50), the EC50 was 9.2 nM.
`CCC1(F)CCCN2CC1n1cc(C(=O)NCc3ccc(F)cc3F)c(=O)c(O)c1C2=O` (stereo not drawn) [Example 105, N-(2,4-difluorobenzyl)-6-ethyl-6-fluoro-12-hydroxy-1,11-dioxo-1,4,5,6,7,11-hexahydro-3H-2,7-methanopyrido[1,2-a][1,4]diazonine-10-carboxamide]: in data set [1], the CC50 at 5 days stood at 22300 nM. Moreover, the EC50 with HIV-1 (IIIB) (read-out: EC50) turned out to be 1.9 nM.
For the compound `CCC1CCCN2CC1n1cc(C(=O)NCc3ccc(F)cc3F)c(=O)c(O)c1C2=O` (stereo not drawn) [Example 106, N-(2,4-difluorobenzyl)-6-ethyl-12-hydroxy-1,11-dioxo-1,4,5,6,7,11-hexahydro-3H-2,7-methanopyrido[1,2-a][1,4]diazonine-10-carboxamide], the CC50 at 5 days in data set [1] came to 6840 nM. For the same compound, in the data set on HIV-1 (IIIB) (read-out: EC50), the EC50 is 2.32 nM.
In the case of `C[C@]1(O)CCN2C[C@H](C1)n1cc(C(=O)NCc3c(F)cc(F)cc3F)c(=O)c(O)c1C2=O` [Example 107-1, (5S,7S)-5,12-dihydroxy-5-methyl-1,11-dioxo-N-(2,4,6-trifluorobenzyl)-1,4,5,6,7,11-hexahydro-3H-2,7-methanopyrido[1,2-a][1,4]diazonine-10-carboxamide], the CC50 at 5 days in data set [1] is > 50000 nM. Besides, the EC50 in the data set with HIV-1 (IIIB) (read-out: EC50) was determined as 15.1 nM.
Turning to `C[C@@]1(O)CCN2C[C@H](C1)n1cc(C(=O)NCc3c(F)cc(F)cc3F)c(=O)c(O)c1C2=O` [Example 107-2, (5R,7S)-5,12-dihydroxy-5-methyl-1,11-dioxo-N-(2,4,6-trifluorobenzyl)-1,4,5,6,7,11-hexahydro-3H-2,7-methanopyrido[1,2-a][1,4]diazonine-10-carboxamide], the CC50 at 5 days in data set [1] is > 50000 nM. Further, the half-maximal effective concentration (EC50) in the data set on HIV-1 (IIIB) (read-out: EC50) is 12.1 nM.
On the same counts, the results for `C[C@@]1(F)CCN2C[C@H](C1)n1cc(C(=O)NCc3c(F)cc(F)cc3F)c(=O)c(O)c1C2=O` [Example 115-2, (5R,7S)-5-fluoro-12-hydroxy-5-methyl-1,11-dioxo-N-(2,4,6-trifluorobenzyl)-1,4,5,6,7,11-hexahydro-3H-2,7-methanopyrido[1,2-a][1,4]diazonine-10-carboxamide] are 28100 nM and 2.58 nM.
In the case of `CC1CCN2C[C@H](C1)n1cc(C(=O)NCc3c(F)cc(F)cc3F)c(=O)c(O)c1C2=O` (stereo partly drawn) [Example 124, (7S)-12-hydroxy-5-methyl-1,11-dioxo-N-(2,4,6-trifluorobenzyl)-1,4,5,6,7,11-hexahydro-3H-2,7-methanopyrido[1,2-a][1,4]diazonine-10-carboxamide], the CC50 at 5 days in data set [1] is 15400 nM. Further, the EC50 in the data set on HIV-1 (IIIB) (read-out: EC50) was found to be 2.79 nM.
Turning to `O=C(NCc1cccc(Cl)c1F)c1cn2c(c(O)c1=O)C(=O)N1CCCC[C@H]2C1` [Example 126, (7S)—N-(3-chloro-2-fluorobenzyl)-12-hydroxy-1,11-dioxo-1,4,5,6,7,11-hexahydro-3H-2,7-methanopyrido[1,2-a][1,4]diazonine-10-carboxamide], the CC50 at 5 days in data set [1] worked out at 15400 nM. Moreover, the EC50 in the data set with HIV-1 (IIIB) turned out to be 4.75 nM.
As for `C[C@@]1(F)CC[C@H]2CN(C1)C(=O)c1c(O)c(=O)c(C(=O)NCc3c(F)cc(F)cc3F)cn12` [Example 132-1, (4R,7S)-4-fluoro-12-hydroxy-4-methyl-1,11-dioxo-N-(2,4,6-trifluorobenzyl)-1,4,5,6,7,11-hexahydro-3H-2,7-methanopyrido[1,2-a][1,4]diazonine-10-carboxamide], in data set [1], the CC50 at 5 days is > 50000 nM. In the data set with HIV-1 (IIIB) (read-out: EC50), the half-maximal effective concentration (EC50) was 8.83 nM.
Regarding `C[C@]1(F)CC[C@H]2CN(C1)C(=O)c1c(O)c(=O)c(C(=O)NCc3c(F)cc(F)cc3F)cn12` [Example 132-2, (4S,7S)-4-fluoro-12-hydroxy-4-methyl-1,11-dioxo-N-(2,4,6-trifluorobenzyl)-1,4,5,6,7,11-hexahydro-3H-2,7-methanopyrido[1,2-a][1,4]diazonine-10-carboxamide], in data set [1], the cytotoxic concentration (CC50) at 5 days was determined as 25700 nM. The EC50 with HIV-1 (IIIB) (read-out: EC50) amounted to 2.78 nM.
`CC1=CC[C@H]2CN(C1)C(=O)c1c(O)c(=O)c(C(=O)NCc3c(F)cc(F)cc3F)cn12` [Example 132-3, (7S)-12-hydroxy-4-methyl-1,11-dioxo-N-(2,4,6-trifluorobenzyl)-1,6,7,11-tetrahydro-3H-2,7-methanopyrido[1,2-a][1,4]diazonine-10-carboxamide]: in data set [1], the CC50 at 5 days was determined as 24100 nM. The EC50 in the data set on HIV-1 (IIIB) (read-out: EC50) is 2.14 nM.
For `O=C(NCc1c(F)cc(F)cc1F)c1cn2c(c(O)c1=O)C(=O)N1CCc3cc(Cl)ccc3[C@H]2C1` [Example 136-1, (13S)-10-chloro-4-hydroxy-3,5-dioxo-N-(2,4,6-trifluorobenzyl)-3,5,8,13-tetrahydro-7H-6,13-methanobenzo[g]pyrido[1,2-a][1,4]diazonine-2-carboxamide], the CC50 at 5 days in data set [1] was determined as 12400 nM. For the same compound, the EC50 in the data set on HIV-1 (IIIB) (read-out: EC50) turned out to be 39.9 nM.
The like results for `O=C(NCc1ccc(F)c(Cl)c1F)c1cn2c(c(O)c1=O)C(=O)N1Cc3cc(F)c(F)cc3C[C@H]2C1` [Example 139-2, (6S)—N-(3-chloro-2,4-difluorobenzyl)-9,10-difluoro-1-hydroxy-2,14-dioxo-2,7,12,14-tetrahydro-6H-6,13-methanobenzo[f]pyrido[1,2-a][1,4]diazonine-3-carboxamide] were, in that order, > 50000 nM and 9.11 nM.
Consider `O=C(NCc1ccc(F)cc1F)c1cn2c(c(O)c1=O)C(=O)N1CCc3cc(Cl)ccc3[C@H]2C1` [Example 140-1, (13S)-10-chloro-N-(2,4-difluorobenzyl)-4-hydroxy-3,5-dioxo-3,5,8,13-tetrahydro-7H-6,13-methanobenzo[g]pyrido[1,2-a][1,4]diazonine-2-carboxamide], for which the CC50 at 5 days in data set [1] came to 14600 nM. For the same compound, the EC50 with HIV-1 (IIIB) (read-out: EC50) is 24.1 nM.
With `O=C(NCc1cccc(Cl)c1F)c1cn2c(c(O)c1=O)C(=O)N1Cc3cc(F)c(F)cc3C[C@H]2C1` [Example 143-2, (6S)—N-(3-chloro-2-fluorobenzyl)-9,10-difluoro-1-hydroxy-2,14-dioxo-2,7,12,14-tetrahydro-6H-6,13-methanobenzo[f]pyrido[1,2-a][1,4]diazonine-3-carboxamide], in data set [1], the CC50 at 5 days was > 50000 nM. In the data set on HIV-1 (IIIB) (read-out: EC50), the EC50 is 12.8 nM.
Consider `O=C(NCc1ccc(F)cc1Cl)c1cn2c(c(O)c1=O)C(=O)N1CCCC[C@H]2C1` [Example 152, (7S)—N-(2-chloro-4-fluoro-benzyl)-12-hydroxy-1,11-dioxo-1,4,5,6,7,11-hexahydro-3H-2,7-methanopyrido[1,2-a][1,4]diazonine-10-carboxamide], for which the CC50 at 5 days in data set [1] came to 12000 nM. Besides, in the data set with HIV-1 (IIIB) (read-out: EC50), the concentration giving a half-maximal response (EC50) was determined as 4.05 nM.
Turning to `O=C(NCc1ccc(Cl)cc1Cl)c1cn2c(c(O)c1=O)C(=O)N1CCCC[C@H]2C1` [Example 153, (7S)—N-(2,4-dichlorobenzyl)-12-hydroxy-1,11-dioxo-1,4,5,6,7,11-hexahydro-3H-2,7-methanopyrido[1,2-a][1,4]diazonine-10-carboxamide], the CC50 at 5 days in data set [1] amounted to 5610 nM. Moreover, the EC50 with HIV-1 (IIIB) (read-out: EC50) was determined as 29.8 nM.
Regarding `O=C(NCc1c(F)cc(F)cc1F)c1cn2c(c(O)c1=O)C(=O)N1CCSC[C@@H]2C1` [Example 155-1, (7S)-12-hydroxy-1,11-dioxo-N-(2,4,6-trifluorobenzyl)-1,3,4,6,7,11-hexahydro-2,7-methanopyrido[1,2-d][1,4,7]thiadiazonine-10-carboxamide], the cytotoxic concentration (CC50) at 5 days in data set [1] was 39500 nM. Besides, the EC50 in the data set with HIV-1 (IIIB) (read-out: EC50) turned out to be 3.05 nM.
With `O=C(NCc1c(F)cc(F)cc1F)c1cn2c(c(O)c1=O)C(=O)N1CCSC[C@H]2C1` [Example 155-2, (7R)-12-hydroxy-1,11-dioxo-N-(2,4,6-trifluorobenzyl)-1,3,4,6,7,11-hexahydro-2,7-methanopyrido[1,2-d][1,4,7]thiadiazonine-10-carboxamide], in data set [1], the CC50 at 5 days was > 41300 nM. For the same compound, in the data set on HIV-1 (IIIB) (read-out: EC50), the EC50 was 4.43 nM.
On the same counts, the results for `O=C(NCc1ccccc1)c1cn2c(c(O)c1=O)C(=O)N1CCCC[C@H]2C1` [Example 167, (7S)—N-benzyl-12-hydroxy-1,11-dioxo-1,4,5,6,7,11-hexahydro-3H-2,7-methanopyrido[1,2-a][1,4]diazonine-10-carboxamide] are 18700 nM and 3.23 nM.
